Our source for the IC50 values is patent US6448269B1 (Eli Lilly and Company, priority 1993, dated 2002).

Experiment [1] concerns human platelet-rich plasma. The experiment in a line: Platelet aggregation assay (Aggregation-Human PRP/ADP). The format is cell-based. To be noted: 1 min; human platelet-rich plasma incubated with compound 1 minute at 37° C.; ADP-induced aggregation; read-out: Agg: Human PRP/ADP IC50uM. As to the method:
Platelet-rich plasma was prepared from healthy human volunteers for use in determining inhibition of platelet aggregation by the compounds.
Platelet-rich plasma was prepared at room temperature by centrifugation of the citrated whole blood at 100×g for 12 minutes. The platelet rich plasma contained approximately 200-400,000 platelets/μl.
Platelet-poor plasma was prepared by centrifugation of citrated whole blood at 12,000×g for 2 minutes.
Platelet aggregation was assayed in a 4-channel platelet aggregation profiler (PAP-4, Biodata, Hatboro, Pa.) according to the manufacturers directions. Inhibition of platelet aggregation was studied by adding varying amounts of […] to stirred human platelet-rich plasma. Specifically, the human platelet-rich plasma was incubated with the compound being tested for 1 minute at 37° C. prior to the addition of a variety of aggregating agents most often ADP 5 μM, but also 1 μg/ml collagen, 1 μM U46619 and 0.3 μM platelet activating factor.

The next experiment deals with T1, GPIIb-IIIa (Homo sapiens, UniProt P05106+P08514).
T1 construct: Purified platelet GPIIb-IIIa receptor was prepared as described by Fitzgerald; from tissue; host or cells: platelets
T1 sequence (P08514 32-887 limits assumed): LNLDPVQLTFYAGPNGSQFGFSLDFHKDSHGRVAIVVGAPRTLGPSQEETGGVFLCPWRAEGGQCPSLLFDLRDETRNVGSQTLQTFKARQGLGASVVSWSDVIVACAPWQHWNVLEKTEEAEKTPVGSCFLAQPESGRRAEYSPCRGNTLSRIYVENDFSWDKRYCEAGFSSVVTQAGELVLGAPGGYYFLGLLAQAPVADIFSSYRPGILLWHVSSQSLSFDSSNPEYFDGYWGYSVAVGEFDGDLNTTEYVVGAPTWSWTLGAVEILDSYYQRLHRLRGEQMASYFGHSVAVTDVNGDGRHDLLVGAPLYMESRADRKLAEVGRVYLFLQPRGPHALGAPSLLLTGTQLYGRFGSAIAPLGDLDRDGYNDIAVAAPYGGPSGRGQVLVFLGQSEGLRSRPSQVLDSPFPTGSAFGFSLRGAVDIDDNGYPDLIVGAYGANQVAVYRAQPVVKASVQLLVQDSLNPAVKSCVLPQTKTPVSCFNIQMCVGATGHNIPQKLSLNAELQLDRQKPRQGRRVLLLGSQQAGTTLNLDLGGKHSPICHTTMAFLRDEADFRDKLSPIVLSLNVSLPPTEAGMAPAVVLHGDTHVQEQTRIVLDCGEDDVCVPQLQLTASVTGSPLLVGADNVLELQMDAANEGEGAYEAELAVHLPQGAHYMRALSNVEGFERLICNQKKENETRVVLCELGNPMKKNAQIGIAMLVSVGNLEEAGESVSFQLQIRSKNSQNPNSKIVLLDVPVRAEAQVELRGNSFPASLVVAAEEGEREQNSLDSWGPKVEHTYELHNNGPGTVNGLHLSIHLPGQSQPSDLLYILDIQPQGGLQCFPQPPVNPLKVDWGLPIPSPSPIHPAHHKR
T1 sequence (P05106 27-788): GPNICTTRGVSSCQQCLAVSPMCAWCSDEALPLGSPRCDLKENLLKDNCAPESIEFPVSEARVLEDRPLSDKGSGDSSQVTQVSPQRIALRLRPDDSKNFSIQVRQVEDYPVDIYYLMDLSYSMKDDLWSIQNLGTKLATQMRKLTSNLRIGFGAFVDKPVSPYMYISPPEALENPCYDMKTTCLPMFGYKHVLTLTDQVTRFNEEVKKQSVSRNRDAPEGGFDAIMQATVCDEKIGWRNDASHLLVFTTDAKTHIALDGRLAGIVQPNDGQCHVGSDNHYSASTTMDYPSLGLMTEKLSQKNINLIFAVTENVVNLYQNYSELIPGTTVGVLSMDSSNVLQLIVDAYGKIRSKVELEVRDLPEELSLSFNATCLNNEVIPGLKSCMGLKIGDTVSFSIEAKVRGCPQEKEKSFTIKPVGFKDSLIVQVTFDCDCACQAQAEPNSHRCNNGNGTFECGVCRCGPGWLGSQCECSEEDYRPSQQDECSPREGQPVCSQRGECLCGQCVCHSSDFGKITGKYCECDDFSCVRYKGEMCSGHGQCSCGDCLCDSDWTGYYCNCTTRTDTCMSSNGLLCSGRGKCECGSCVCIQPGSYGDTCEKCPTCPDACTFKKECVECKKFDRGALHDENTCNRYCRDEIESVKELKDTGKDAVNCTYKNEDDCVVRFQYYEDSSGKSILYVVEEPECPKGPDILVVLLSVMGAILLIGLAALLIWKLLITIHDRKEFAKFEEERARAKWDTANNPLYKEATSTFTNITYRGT
The experiment in a line: ELISA IIb-IIIa assay (fibrinogen binding to immobilized GPIIb-IIIa). To be noted: purified platelet GPIIb-IIIa receptor coated on ELISA plates; biotin-labeled fibrinogen 10 nM, 3 hours at 25° C. As to the method: In the following assay, GPIIb-IIIa is prepared in purified form, by a method such as described by Fitzgerald, L. A., et al., Anal Biochem (1985) 151:169-177, (the disclosure of which is incorporated herein by reference). GPIIb-IIIa is coated onto microtiter plates. The coated support is then contacted with fibrinogen and with the test material (e.g., compounds of Formula I) and incubated for a sufficient time to permit maximal binding of fibrinogen to the immobilized GPIIb-IIIa. Fibrinogen is typically provided at a concentration of about 5-50 nM and the test material can, if desired, be added at a series of dilution. Typical incubations are 2 to 4 hours at 25° C., the time and temperature being interdependent.
After incubation, the solution containing the fibrinogen and test material is removed and the level of binding of fibrinogen measured by quantitating bound fibrinogen to GPIIb-IIIa. Any suitable means of detection may be used, but it is convenient to employ labeled fibrinogen, for example using biotinylated labels. Such methods are well known in the art.
Purified platelet GPIIb-IIIa receptor was prepared as described by Fitzgerald, L. A., et al., Anal Biochem (1985) 151:169-177 (1985). Vitronectin receptor was prepared as described by Smith, J. W., J. Biol Chem (1988) 263:18726-18731. After purification, the receptors were stored in 0.1% Triton X-100 at 0.1-1.0 mg/ml.
The receptors were coated to the wells of 96-well flat-bottom ELISA plates (Linbro EIA-Plus microtiter plate, Flow Laboratories) after diluting 1:200 with a solution of 20 mM Tris-HCl, 150 mM NaCl, 1 mM CaCl2, pH 7.4, to reduce the Triton X-100 concentration to below its critical micellar concentration and adding an aliquot of 100 ul to each well. The wells were all allowed to incubate overnight at 4° C., and then aspirated to dryness. Additional sites were blocked by the addition of bovine serum albumin (BSA) at 35 mg/ml in the above buffer for 2 hours at 30° C. to prevent nonspecific binding. The wells were then washed once with binding buffer ([…] Tris-HCl, 100 mM NaCl 2 mM CaCl2, 1 mg/ml BSA).
The corresponding ligands (fibrinogen, von Willebrand Factor, or vitronectin) were conjugated to biotin using commercially available reagents and standard protocols. The labeled ligands were added to the receptor-coated wells at final concentration of 10 nM (100 ul/well) and incubated for 3 hours at 25° C. in the presence or absence of the test samples. After incubation, the wells are aspirated to dryness and bound ligand is quantitated.
The bound protein is detected by the addition of antibiotin antibody conjugated to alkaline phosphatase followed by addition of substrate (p-nitrophenyl phosphate), and determination of the optical density of each well at […]. Decreased color development is observed in wells incubated with test samples which inhibit binding of ligand to receptor.

Structures can show the parent of a compound that is named as a salt.

`N=C(N)c1ccc(C(=O)Nc2ccc3c(c2)CCC(CC(=O)O)O3)cc1` (racemic) [Example 48, rac-(6-(N-(4-(Aminoiminomethyl)benzoyl)amino)-3,4-dihydro-2H-1-benzopyran-2-yl)acetic Acid]: the IC50 in experiment [1] was determined as 0.066 µM; at GPIIb-IIIa, 4 nM.
In the same order, the values of `CCOC(=O)CCC1(C)CCc2cc(NC(=O)c3ccc(C(=N)N)cc3)ccc2O1` (racemic) [Example 50, Ethyl rac-3-(6-(N-(4-(Aminoiminomethyl)benzoyl)amino)-3,4-dihydro-2-methyl-2H-1-benzopyran-2-yl)propanoate Hydrochloride] are 100 µM and 3930 nM.
In the same order, the values of `CC1(CCC(=O)O)C=Cc2cc(OCc3ccc(C(=N)N)cc3)ccc2O1` (racemic) [Example 53, rac-3-(6-(4-(Aminoiminomethyl)phenylmethoxy)-2-methyl-2H-1-benzopyran-2-yl)propanoic Acid Hydrochloride] are 21 µM and 720 nM.
In the same order, the values of `CCCCCC(CC(=O)O)N1CCc2cc(OCc3ccc(C(=N)N)cc3)ccc2C1=O` (racemic) [Example 12, (+−)-6-[[4-(Aminoiminomethyl)phenyl]methoxyl]-3,4-dihydro-1-oxo-b-pentyl-2(1H)-isoquinolinepropanoic Acid Trifluoroacetate] are 0.57 µM and 24 nM.
`CC1(CCCCCCCCC(=O)O)C=Cc2cc(C(=N)N)ccc2O1` (racemic) [Example 60, rac-9-(6-Aminoiminomethyl-2-methyl-2H-1-benzopyran-2-yl)nonanoic Acid]: the figures for the IC50 (in experiment [1]; at GPIIb-IIIa) were over 10 µM and 1800 nM, respectively.
Consider `CCNC(=N)c1ccc(C(=O)Nc2ccc3c(c2)CCC(CC(=O)O)O3)cc1` (racemic) [Example 72, rac-(3,4-Dihydro-6-(N-(4-((ethylamino)iminomethyl)benzoyl)amino)-2H-1-benzopyran-2-yl)acetic Acid], for which the IC50 is 0.28 µM in experiment [1] and 18.5 nM at GPIIb-IIIa.
In the same order, the values of `N=C(N)c1ccc(C(=O)Nc2ccc3c(c2)CCC(CC(=O)O)O3)c(F)c1` (racemic) [Example 70, rac-(6-(N-(4-(Aminoiminomethyl)-2-fluorobenzoyl)amino)-3,4-dihydro-2H-1-benzopyran-2-yl)acetic Acid] are 0.082 µM and 1.3 nM.
In the same order, the values of `O=C(O)COC1CCc2cc(OCCCC3CCNCC3)ccc2C1` (centres unmarked) [Example 24] are 6.5 µM and 760 nM.
In the same order, the values of `N=C(N)c1ccc(C(=O)Nc2ccc3c(c2)CCC(CCC(=O)O)C3)cc1` (centres unmarked) [Example 38] are 2.8 µM and 240 nM.
Take `CCOC(=O)CC1CCc2cc(NC(=O)c3ccc(C(=N)N)cc3)ccc2O1` (racemic) [Example 47, Hydrochloride]: the IC50 in experiment [1] is 0.24 µM; at GPIIb-IIIa, 770 nM.
Consider `CCCCNC(=N)c1ccc(C(=O)Nc2ccc3c(c2)CCC(CC(=O)O)O3)cc1` (racemic) [Example 84, rac-(6-(N-(4-((Butylamino)iminomethyl)benzoyl)amino)-3,4-dihydro-2H-1-benzopyran-2-yl)acetic Acid], for which the IC50 in experiment [1] was determined as 0.084 µM; at GPIIb-IIIa, 5.5 nM.
In the same order, the values of `N=C(N)c1ccc(COc2ccc3c(c2)CCN(C(CC(=O)O)c2ccccc2)C3=O)cc1` (racemic) [Example 16, (+−)-6-[[4-(Aminoiminomethyl)phenyl]methoxy]-3,4-dihydro-1-oxo-b-phenyl-(1H)-isoquinoline Propanoic Acid Trifluoroacetate] are 0.2 µM and 7 nM.
In the same order, the values of `N=C(N)c1ccc(NC(=O)c2ccc3c(c2)CCC(OCC(=O)O)C3)cc1` (centres unmarked) [Example 39] are 0.36 µM and 31 nM.
In the same order, the values of `CCCCC(CC(=O)O)N1CCc2cc(OCc3ccc(C(=N)N)cc3)ccc2C1=O` (racemic) [Example 11, (+−)-6-[[4-(Aminoiminomethyl)phenyl]methoxy]-b-butyl-3,4-dihydro-1-oxo-2(1H)-isoquinoline Propanoic Acid Trifluoroacetate] are 0.6 µM and 40 nM.
In the case of `CCOCCCC(CC(=O)O)N1CCc2cc(OCc3ccc(C(=N)N)cc3)ccc2C1=O` (racemic) [Example 10, (+−)-6-[[4-(Aminoiminomethyl)phenyl]methoxy]-b-(3-ethoxypropyl)-3,4-dihydro-1-oxo-2(1H)-isoquinoline Propanoic Acid Trifluoroacetate], the IC50 in experiment [1] came out at 0.47 µM; at GPIIb-IIIa it was 61 nM.
Consider `N=C(N)c1ccc(COc2ccc3c(c2)CCC(CC(=O)O)O3)cc1` (racemic) [Example 46, rac-(6-(4-(Aminoiminomethyl)phenylmethoxy)-3,4-dihydro-2H-1-benzopyran-2-yl)acetic Acid Trifluoroacetate], for which the IC50 in experiment [1] is 2.5 µM; at GPIIb-IIIa, 3.3 nM.
